Here are results for four molecules from ChEMBL document CHEMBL1201862, “PubChem BioAssay data set” (2004).

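Compound exposure: 48 hours, 5 concentrations, 96-well plates. GI50: concentration for 50% inhibition of growth.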 The source made the active and inactive calls. No stated cut-off is given here; in the data, active = GI50 up to about 1.1 µM and inactive = higher.

Holding throughout (assay): NCI tumour cell line growth inhibition, 48 h
Experiment [1] concerns SF-539.
Experiment [2] deals with MDA-MB-231.
Experiment [3] has as its system HOP-62.
For experiment [4], the system named is HL-60.
In experiment [5] the test system is HCT-15.
In experiment [6] the test system is RXF 393.
Experiment [7] concerns MDA-N.
Experiment [8] deals with OVCAR-4.
Experiment [9] deals with OVCAR-8.
Experiment [10] has as its system NCI/ADR-RES.
For experiment [11], the system named is MOLT-4.
Experiment [12] concerns NCI-H460.
Experiment [13] deals with SF-295.
The test system of experiment [14] is CCRF-CEM.
The subject of experiment [15] is EKVX.
Experiment [16] deals with SW-620.
Experiment [17] relates to NCI-H226.
The test system of experiment [18] is MCF7.
The test system of experiment [19] is LOX IMVI.

In the case of `c1ccc(CCCCNCc2cc(CNCCCCc3ccccc3)cc(CNCCCCc3ccccc3)c2)cc1`, the GI50 in experiment [1] is 800 nM (active); in [2] it was 1610 nM (inactive); in experiment [3], 1750 nM (inactive); in experiment [4], 226 nM (active); in [5], 586 nM; in experiment [6], 1310 nM (inactive). The GI50 is 2360 nM (inactive) in experiment [7]; 1850 nM (inactive) in [8]; 782 nM (active) in experiment [9]; 760 nM (active) in experiment [10]; 251 nM (active) in experiment [11]; 364 nM (active) in experiment [12]. Also, the GI50 in [13] was 1810 nM (inactive); in [14], 211 nM (active); in experiment [15], 1640 nM (inactive); in experiment [16], 301 nM (active); in [17], 2600 nM (inactive); in [18], 178 nM (active). For the same molecule, the GI50 in [19] was 308 nM (active).

`C[C@H]1O[C@@H](C(C)(C)C)OC(=O)[C@@H]1C(OC(=O)c1ccccc1)c1cccc2ccccc12` (some centres undefined): the GI50 is > 100000 nM (inactive) in experiment [1]; > 100000 nM (inactive) in experiment [2]; > 100000 nM (inactive) in experiment [3]; greater than 100000 nM in [5]; > 100000 nM (inactive) in experiment [6]; > 100000 nM (inactive) in experiment [7]. Also, the GI50 is > 100000 nM (inactive) in experiment [8]; > 100000 nM (inactive) in experiment [9]; 56100 nM (inactive) in [10]; > 100000 nM (inactive) in experiment [11]; > 100000 nM (inactive) in experiment [12]; > 100000 nM (inactive) in [13]. Besides, the GI50 is > 100000 nM (inactive) in experiment [14]; > 100000 nM (inactive) in experiment [15]; > 100000 nM (inactive) in experiment [16]; 8870 nM (inactive) in experiment [17]; > 100000 nM (inactive) in experiment [18]; > 100000 nM (inactive) in experiment [19].

`Cc1cnc2[nH]c(-c3ccccc3)cc(=O)c2c1`: the GI50 in experiment [1] is 24.6 nM (active); in experiment [2], 217 nM (active); in experiment [3], 1210 nM (inactive); in experiment [4] it was < 10 nM (active); in [5] it was 21.2 nM; in experiment [6], 15.4 nM (active). The GI50 in [7] is < 10 nM (active); in experiment [8] it was 1350 nM (inactive); in experiment [9], 40 nM (active); in [10], 12 nM (active); in experiment [11], 25.2 nM (active); in [12], 25.9 nM (active). For the same molecule, the GI50 is 54.5 nM (active) in experiment [13]; 15.9 nM (active) in experiment [14]; 716 nM (active) in experiment [15]; < 10 nM (active) in experiment [16]; 122 nM (active) in experiment [17]; 164 nM (active) in experiment [18]. The GI50 in [19] was 35.1 nM (active).

Turning to `Cc1cnc2sn(-c3ccc(Oc4ccccc4)cc3)c(=O)c2c1`, the GI50 in experiment [1] was 14000 nM (inactive); in experiment [2] it was 20500 nM (inactive); in experiment [3], 12900 nM (inactive); in [4] it was 4360 nM (inactive); in [5] it was 7380 nM; in experiment [7], 16600 nM (inactive). For the same molecule, the GI50 in [8] was 17900 nM (inactive); in experiment [9], 28800 nM (inactive); in [10] it was 21700 nM (inactive); in experiment [11], 8670 nM (inactive); in experiment [12], 7410 nM (inactive); in experiment [13], 15500 nM (inactive). Further, the GI50 in [14] was 5110 nM (inactive); in experiment [15], 13400 nM (inactive); in experiment [16], 21200 nM (inactive); in [17] it was 18200 nM (inactive); in experiment [18] it was 22400 nM (inactive); in experiment [19], 6100 nM (inactive).
